Test results taken from the NIST ThermoML archive (doi:10.1021/je060271a).

Conditions: 303.16 K, Liquid, Vibrating tube method

CCCC(=O)OCC(COC(=O)CCC)(COC(=O)CCC)COC(=O)CCC [pentaerythritol tetrabutyrate]
Conditions | mass density [kg/m3]
28457 kPa | 1059.5
28504 kPa | 1059.6
28542 kPa | 1059.7
28589 kPa | 1059.8
28636 kPa | 1059.7
28675 kPa | 1059.8
28723 kPa | 1059.9
28762 kPa | 1059.7
28808 kPa | 1059.8
28856 kPa | 1059.8
28896 kPa | 1060
28944 kPa | 1059.8
28991 kPa | 1060
29031 kPa | 1060
29080 kPa | 1060
29121 kPa | 1060
29170 kPa | 1060.1
29212 kPa | 1060
29261 kPa | 1060.1
29301 kPa | 1060
29349 kPa | 1060
29397 kPa | 1060.1
29435 kPa | 1060
29481 kPa | 1060.1
29515 kPa | 1060.2
29583 kPa | 1060.3
29644 kPa | 1060.2
29675 kPa | 1060.3
29772 kPa | 1060.4
29848 kPa | 1060.4
29885 kPa | 1060.5
29968 kPa | 1060.4
30045 kPa | 1060.6
30080 kPa | 1060.5
30163 kPa | 1060.5
30239 kPa | 1060.6
30274 kPa | 1060.8
30309 kPa | 1060.5
30339 kPa | 1060.8
30375 kPa | 1060.8
30405 kPa | 1060.6
30441 kPa | 1060.8
30478 kPa | 1060.7
30509 kPa | 1060.8
30539 kPa | 1060.8
30576 kPa | 1060.9
30606 kPa | 1060.9
30642 kPa | 1060.7
30679 kPa | 1060.9
30710 kPa | 1060.8
30746 kPa | 1060.9
30777 kPa | 1061.1
30814 kPa | 1061
30850 kPa | 1060.9
30882 kPa | 1061
30919 kPa | 1061
30951 kPa | 1061
30989 kPa | 1061.1
31020 kPa | 1061
31057 kPa | 1061.1
31094 kPa | 1061.3
31126 kPa | 1061.1
31164 kPa | 1061.1
31196 kPa | 1061.1
31233 kPa | 1061.1
31271 kPa | 1061.2
31303 kPa | 1061.3
31342 kPa | 1061.2
31375 kPa | 1061.3
31414 kPa | 1061.3
31446 kPa | 1061.3
31485 kPa | 1061.2
31517 kPa | 1061.2
31555 kPa | 1061.3
31595 kPa | 1061.4
31627 kPa | 1061.4
31667 kPa | 1061.4
31700 kPa | 1061.5
31738 kPa | 1061.4
31778 kPa | 1061.5
31811 kPa | 1061.5
31851 kPa | 1061.5
31883 kPa | 1061.5
31922 kPa | 1061.6
31960 kPa | 1061.6
31999 kPa | 1061.6
32038 kPa | 1061.6
32076 kPa | 1061.5
32115 kPa | 1061.7
32148 kPa | 1061.9
32187 kPa | 1061.8
32227 kPa | 1061.7
32266 kPa | 1061.9
32299 kPa | 1061.7
32339 kPa | 1061.8
32380 kPa | 1061.8
32419 kPa | 1061.8
32452 kPa | 1061.8
32491 kPa | 1062
32532 kPa | 1061.9
32572 kPa | 1061.8
32612 kPa | 1061.9
32652 kPa | 1062
32693 kPa | 1061.8
32727 kPa | 1062
32768 kPa | 1062
32809 kPa | 1062.1
32850 kPa | 1062
32891 kPa | 1062.2
33091 kPa | 1062.2
33133 kPa | 1062.2
33168 kPa | 1062.2
33210 kPa | 1062.2
33253 kPa | 1062.4
33296 kPa | 1062.3
33340 kPa | 1062.3
33377 kPa | 1062.2
33421 kPa | 1062.4
33456 kPa | 1062.4
33499 kPa | 1062.4
33542 kPa | 1062.4
33586 kPa | 1062.6
33622 kPa | 1062.5
33666 kPa | 1062.6
33710 kPa | 1062.5
33753 kPa | 1062.5
33797 kPa | 1062.6
33834 kPa | 1062.6
33881 kPa | 1062.7
33925 kPa | 1062.7
33963 kPa | 1062.8
34008 kPa | 1062.7
34052 kPa | 1062.7
34098 kPa | 1062.8
34136 kPa | 1062.8
34182 kPa | 1062.8
34228 kPa | 1062.7
34275 kPa | 1062.9
34322 kPa | 1062.9
34370 kPa | 1063
34411 kPa | 1063.1
34462 kPa | 1063
34514 kPa | 1063.1
34558 kPa | 1062.9
34613 kPa | 1063
34844 kPa | 1063.3
